Values quoted from earlier work as cited in US5827682A, “Two-step conversion of vegetable protein isoflavone conjugates to aglucones” (Protein Technologies International, Inc., priority 1996, dated 1998).

Key:
[1] = test system: Epidermal Growth Factor Receptor; details: title of cited article
[2] = test system: human prostate cancer cells; details: title of cited article
[3] = test system: human breast cancer cells; details: title of cited article; independence from estrogen receptors and the multi-drug resistance gene

SMILES	Inhibition of epidermal growth factor receptor tyrosine autophosphorylation [1]	Inhibition of the growth of human prostate cancer cells [2]	Inhibition of the growth of human breast cancer cells [3]
COc1ccc(-c2coc3cc(O)cc(O)c3c2=O)cc1 [Biochanin A, biochanin A]	not Epidermal Growth Factor Receptor Tyrosine Autophosphorylation	Inhibit the Growth of Human Prostate Cancer Cells	
O=c1c(-c2ccc(O)cc2)coc2cc(O)cc(O)c12 [Genistein, genistein]	not Epidermal Growth Factor Receptor Tyrosine Autophosphorylation	Inhibit the Growth of Human Prostate Cancer Cells	Inhibition of the Growth of Human Breast Cancer Cells
